Data taken from PMC9739180, “Discovery of a Flavonoid FM04 as a Potent Inhibitor to Reverse P-Glycoprotein-Mediated Drug Resistance in Xenografts and Improve Oral Bioavailability of Paclitaxel” (International Journal of Molecular Sciences, 2022).
One block for each compound: values may come before it.

Assays:
[1] = Cytotoxicity assay (MTS, 3 days), LCC6; type: cell-based; conditions: human, LCC6 cells
Procedure: To each well of 96-well plate, 10,000 cells of LCC6, LCC6MDR or L929 were incubated with different concentrations of FM04 (0, 0.4, 1.2, 3.7, 11, 33 and 100 μM). The final volume in each well of 96-well plate was 100 μL and the plate was incubated for 3 days at 37 °C. The cell viability was determined using MTS assay as reported previously.

P-gp = P-gp (Homo sapiens, UniProt P08183); experiment: Intracellular DOX accumulation assay in LCC6MDR cells
[2] = test system: human melanoma MDA435/LCC6MDR xenograft; experiment: In vivo efficacy in human melanoma MDA435/LCC6MDR xenograft; set-up: species or system Balb/c nude mice
Procedure: The treatment was given every other day for 12 times (q2d × 12) from day 0 to day 22. There were four treatment groups including (1) control: no treatment, (2) PTX alone (12 mg/kg, I.V.), (3) PTX alone (24 mg/kg, I.V.) and (4) combination treatment: FM04 (28 mg/kg, I.P.,−1 h) + PTX (12 mg/kg, I.V.).
Balb/c nude mice were subcutaneously xenografted with LCC6MDR. The treatment groups included (1) control—no treatment, (2) PTX (12 mg/kg, I.V.) alone, (3) PTX (24 mg/kg, I.V.) alone and (4) co-treatment: FM04 (28 mg/kg, I.P.) was injected 1 hr prior to PTX (12 mg/kg, I.V.). (A) tumor volume and (B) body weight were monitored throughout the treatment. The treatment was given to mice every other day for 12 times (q2d × 12) and indicated as an arrow. […] (C) Tumor-inhibition % on day 34 and tumor-doubling time after each treatment were determined. Number of animal deaths was monitored during the treatment. For the tumor volume at each time point, statistical analysis was conducted by one-way-ANOVA between co-treatment group and PTX alone treatment, * p < 0.05. /: not applicable.
The LCC6MDR tumor xenograft model was studied previously in [24]. Female Balb/c nude mice (4–6 week-old) were subcutaneously inoculated with 5 × 10^7cells of P-gp overexpressing LCC6MDR and allowed to develop tumor. Treatment began when a solid tumor of 150–200 mm^3 was formed. Tumor-bearing mice were randomized into four groups with 7–8 mice in each group: (1) control group—no treatment, (2) PTX alone (12 mg/kg, I.V.), (3) PTX alone (24 mg/kg, I.V.) and (4) co-treatment: FM04 (28 mg/kg, I.P.) was injected 1 hr before PTX (12 mg/kg, I.V.) administration. Tumor growth was measured by an electronic caliper on the injection day and the tumor volume was calculated using the following formula: Estimated tumor volume (mm^3)=l×w^2/2

CYP2C8 and CYP3A4 = experiment: PTX metabolism in human liver microsomes: PTX level; type: in vitro ADME; conditions: HLM; in the presence of NADPH, no inhibitor
Procedure: Figure 7 Mechanistic study of FM04 to increase the oral PTX absorption. (A) transepithelial permeability of PTX in Caco-2 transwell assay. When confluent monolayer of Caco2 cells was formed on the transwell, the permeability of PTX (10 μM) was studied with or without FM04 (10 μM). For apical to basolateral transport (A to B), compound was added at the apical side (donor) and samples of the medium collected at the basal side (receiver) at 0, 20, 40, 60, 80, 100 and 120 min and vice versa for basal to apical transport (B to A). The PTX level was determined using UPLC-MS/MS. The relative % of PTX was presented as mean ± standard error of mean. N = 2–3 independent experiments. Impact of FM04 on PTX metabolism. […] After incubation, the levels of PTX, metabolites 6α-hydroxpaclitaxel (6α-OHP) and p3′-hydroxpaclitaxel (p3-OHP) were determined by HPLC-MS/MS. (B) changes in PTX. (C) changes in 6α-OHP. (D) changes in p3-OHP. […]
Drug solutions of PTX and FM04 were prepared in methanol. […] PTX and PTX metabolites were immediately analyzed by UPLC-MS/MS on the same day.
[^13C6]-paclitaxel (CAS: 379688-61-6) was the internal standard (IS) and purchased from Alsachim. Fifteen microliters of 10 μg/mL internal standard (IS) was added to all samples and calibration standards for quantification. […] PTX and both metabolites were semi-quantified base on the peak area ratio of the analyte/internal standard.

[3] = test system: human melanoma MDA435/LCC6 xenograft; experiment: In vivo efficacy of oral co-administration in human melanoma MDA435/LCC6 xenograft; conditions: PTX 12 mg/kg I.V., (q1d × 4) × 2 rounds
Procedure: The treatment was given daily four times and two rounds on days 0, 1, 2, 3, 6, 7, 8 and 9 [(q1d × 4) × 2 rounds].
The treatment was given to mice every day for 4 times and 2 rounds [(q1d × 4) x 2 rounds] and indicated as an arrow.
LCC6 cells at 1 × 10^6 were injected intraperitoneally (I.P.) to allow ascite development for cell adaptation in vivo. Aspirated ascite was then injected S. C. to nude mice for the development of solid tumors as stock. These solid tumors were excised and trimmed into 1 mm^3 cubes for constructing subsequent S.C. xenografts. The study begun when these xenografts were confirmed to bear a tumor at 100–120 mm^3. FM04 (22 or 45 mg/kg) was co-administered orally with PTX (40, 60, 70 or 80 mg/kg). The treatment schedule was set to once a day for four times in two cycles (q1d × 4, 2 cycles). Tumor volume and body weight changes were monitored throughout the experiment. Animals with a body weight loss > 15% during treatment for more than 3 consecutive days were considered to be treatment-induced toxicity. All animals were sacrificed on day 30. Statistical analysis was performed by using one-way ANOVA (*, p < 0.05; **, p < 0.01; ***, p < 0.001).

P-gp, sequence (P08183 whole entry): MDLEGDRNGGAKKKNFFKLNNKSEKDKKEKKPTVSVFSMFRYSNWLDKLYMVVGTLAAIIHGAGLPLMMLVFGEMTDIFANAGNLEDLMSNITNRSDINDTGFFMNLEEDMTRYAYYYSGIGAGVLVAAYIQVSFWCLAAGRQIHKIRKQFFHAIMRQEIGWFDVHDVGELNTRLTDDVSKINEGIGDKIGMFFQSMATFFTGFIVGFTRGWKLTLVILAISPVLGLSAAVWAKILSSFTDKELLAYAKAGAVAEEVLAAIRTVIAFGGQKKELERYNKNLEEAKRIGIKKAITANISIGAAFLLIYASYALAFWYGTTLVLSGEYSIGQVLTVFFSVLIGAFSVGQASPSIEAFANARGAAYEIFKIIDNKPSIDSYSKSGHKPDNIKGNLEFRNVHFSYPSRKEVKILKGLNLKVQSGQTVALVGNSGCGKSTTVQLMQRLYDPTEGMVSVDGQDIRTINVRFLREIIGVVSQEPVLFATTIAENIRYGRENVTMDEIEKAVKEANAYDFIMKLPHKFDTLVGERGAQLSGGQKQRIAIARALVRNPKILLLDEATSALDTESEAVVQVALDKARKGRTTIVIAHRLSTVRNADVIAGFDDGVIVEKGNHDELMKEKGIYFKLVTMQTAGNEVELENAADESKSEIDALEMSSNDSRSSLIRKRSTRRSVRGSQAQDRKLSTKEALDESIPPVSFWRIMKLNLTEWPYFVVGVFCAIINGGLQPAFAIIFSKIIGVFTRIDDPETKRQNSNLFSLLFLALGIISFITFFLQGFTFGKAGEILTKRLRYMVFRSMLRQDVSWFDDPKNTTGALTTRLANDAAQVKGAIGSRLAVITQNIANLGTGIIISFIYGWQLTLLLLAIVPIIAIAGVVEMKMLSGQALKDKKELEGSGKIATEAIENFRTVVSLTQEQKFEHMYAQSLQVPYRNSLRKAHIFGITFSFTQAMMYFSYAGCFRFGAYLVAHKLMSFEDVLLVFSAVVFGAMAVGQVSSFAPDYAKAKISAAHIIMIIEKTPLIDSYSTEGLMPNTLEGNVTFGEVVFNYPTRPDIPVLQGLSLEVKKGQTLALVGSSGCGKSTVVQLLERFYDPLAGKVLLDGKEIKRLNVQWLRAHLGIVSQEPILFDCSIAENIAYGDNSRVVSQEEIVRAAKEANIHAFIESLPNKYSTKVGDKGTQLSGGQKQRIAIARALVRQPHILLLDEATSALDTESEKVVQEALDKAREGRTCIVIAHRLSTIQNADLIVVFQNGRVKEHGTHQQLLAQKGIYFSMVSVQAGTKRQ

- EC50 (P-gp): 0.064 µM
Compound: O=c1cc(-c2ccc(OCCOCCNCc3ccccc3)cc2)oc2ccccc12 [FM04, 2-(4-(2-(2-(benzylamino)ethoxy)ethoxy)phenyl)-4H-chromen-4-one]
- IC50 at 3 days [1]: 10.3 ± 0.2 µM

Compound: CC(=O)O[C@H]1C(=O)[C@@]2(C)[C@H]([C@H](OC(=O)c3ccccc3)[C@]3(O)C[C@H](OC(=O)[C@H](O)[C@@H](NC(=O)c4ccccc4)c4ccccc4)C(C)=C1C3(C)C)[C@]1(OC(C)=O)CO[C@@H]1C[C@@H]2O [PTX, paclitaxel]
- Tumor doubling time (Td) ([2]; PTX 12 mg/kg I.V., q2d × 12): 10 days
- fold reduction in tumor volume ([2]; PTX 24 mg/kg I.V.): 2.5 fold
- weight loss ([2]; PTX 24 mg/kg I.V.): > 15%
- No. of animal death ([2]; PTX 24 mg/kg I.V., q2d × 12): 4 out of 6
- reduction of PTX level (CYP2C8 and CYP3A4): 50%
- Tumor inhibition on day 31 (%) [3]: 97%
